Reference: ChEMBL document CHEMBL1909046, “DrugMatrix in vitro pharmacology data”

Tests used:
[1] = target: T1, Alpha-2C adrenergic receptor (Homo sapiens, UniProt P18825); test: DRUGMATRIX: Adrenergic Alpha-2C radioligand binding (ligand: [3H] MK-912); assay type: cell membranes, Sf9, Membrane; conditions: sf9
T1 sequence (P18825 whole entry): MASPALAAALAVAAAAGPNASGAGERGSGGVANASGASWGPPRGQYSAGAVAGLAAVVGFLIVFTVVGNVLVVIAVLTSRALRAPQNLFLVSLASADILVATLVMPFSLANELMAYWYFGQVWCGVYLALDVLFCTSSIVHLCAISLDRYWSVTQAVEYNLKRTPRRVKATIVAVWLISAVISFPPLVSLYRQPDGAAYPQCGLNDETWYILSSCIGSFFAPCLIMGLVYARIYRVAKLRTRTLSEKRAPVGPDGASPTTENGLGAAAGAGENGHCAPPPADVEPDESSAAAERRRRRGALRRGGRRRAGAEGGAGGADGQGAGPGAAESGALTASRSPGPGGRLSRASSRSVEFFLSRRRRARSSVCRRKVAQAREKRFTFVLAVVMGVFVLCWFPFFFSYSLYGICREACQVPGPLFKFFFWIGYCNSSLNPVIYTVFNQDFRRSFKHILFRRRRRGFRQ

Melanocortin receptor 3 = Melanocortin receptor 3 (Homo sapiens, UniProt P41968); assay type: cell membranes, Membrane; conditions: hek293; note: in other assays of this panel Not Active means under 50% inhibition at 10 µM
Sequence of Melanocortin receptor 3 (P41968 whole entry): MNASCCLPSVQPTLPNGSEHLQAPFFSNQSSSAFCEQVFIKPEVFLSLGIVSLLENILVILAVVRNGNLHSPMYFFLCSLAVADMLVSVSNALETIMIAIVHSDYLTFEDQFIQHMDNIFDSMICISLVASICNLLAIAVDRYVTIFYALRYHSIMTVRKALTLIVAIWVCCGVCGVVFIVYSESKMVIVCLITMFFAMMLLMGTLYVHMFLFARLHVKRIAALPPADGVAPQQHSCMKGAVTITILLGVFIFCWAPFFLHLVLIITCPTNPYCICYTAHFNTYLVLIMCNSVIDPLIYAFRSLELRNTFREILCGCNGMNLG

[2] = target: T2, Neuropeptide Y receptor type 2 (Homo sapiens, UniProt P49146); assay type: cell membranes, Membrane; conditions: kan-ts; note: in other assays of this panel Not Active means under 50% inhibition at 10 µM
T2 sequence (P49146 whole entry): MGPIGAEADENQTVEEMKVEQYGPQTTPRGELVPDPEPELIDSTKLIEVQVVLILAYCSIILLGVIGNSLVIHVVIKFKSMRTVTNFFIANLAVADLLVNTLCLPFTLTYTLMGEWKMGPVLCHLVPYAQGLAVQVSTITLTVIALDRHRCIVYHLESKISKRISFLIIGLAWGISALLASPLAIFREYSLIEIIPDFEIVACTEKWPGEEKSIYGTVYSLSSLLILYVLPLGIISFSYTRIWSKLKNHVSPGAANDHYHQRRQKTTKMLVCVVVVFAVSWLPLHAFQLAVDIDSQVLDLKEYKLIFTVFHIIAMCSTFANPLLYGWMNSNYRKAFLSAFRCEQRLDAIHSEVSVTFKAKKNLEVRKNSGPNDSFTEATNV

[3] = target: cGMP-specific 3',5'-cyclic phosphodiesterase (Homo sapiens, UniProt O76074); test: DRUGMATRIX: Phosphodiesterase PDE5 enzyme inhibition (substrate: [3H]cGMP + cGMP); assay type: tissue-based; conditions: platelet; Not Active = under 50% inhibition at 10 µM
Cathepsin G = target: T3, Cathepsin G (Homo sapiens, UniProt P08311); assay type: tissue-based; conditions: neutrophil;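 note: inhibition of Cathepsin G enzyme activity, tested on an AMC-conjugated peptide substrate; in other assays of this panel Not Active means under 50% inhibition at 10 µM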
T3 sequence (P08311 whole entry): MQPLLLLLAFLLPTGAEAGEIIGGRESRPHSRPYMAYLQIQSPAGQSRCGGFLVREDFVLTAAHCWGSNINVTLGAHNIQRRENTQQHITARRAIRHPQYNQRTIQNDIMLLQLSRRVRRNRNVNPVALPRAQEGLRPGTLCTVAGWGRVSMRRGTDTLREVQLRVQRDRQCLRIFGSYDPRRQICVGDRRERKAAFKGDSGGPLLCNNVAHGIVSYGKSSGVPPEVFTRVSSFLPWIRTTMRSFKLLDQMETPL

[4] = target: Mitogen-activated protein kinase 3 (Homo sapiens, UniProt P27361); test: DRUGMATRIX: Protein Serine/Threonine Kinase, ERK1 enzyme inhibition (substrate: Myelin Basic Protein); parameters: species or system Escherichia coli; conditions: Not Active = under 50% inhibition at 10 µM
Sequence of Mitogen-activated protein kinase 3 (P27361 whole entry): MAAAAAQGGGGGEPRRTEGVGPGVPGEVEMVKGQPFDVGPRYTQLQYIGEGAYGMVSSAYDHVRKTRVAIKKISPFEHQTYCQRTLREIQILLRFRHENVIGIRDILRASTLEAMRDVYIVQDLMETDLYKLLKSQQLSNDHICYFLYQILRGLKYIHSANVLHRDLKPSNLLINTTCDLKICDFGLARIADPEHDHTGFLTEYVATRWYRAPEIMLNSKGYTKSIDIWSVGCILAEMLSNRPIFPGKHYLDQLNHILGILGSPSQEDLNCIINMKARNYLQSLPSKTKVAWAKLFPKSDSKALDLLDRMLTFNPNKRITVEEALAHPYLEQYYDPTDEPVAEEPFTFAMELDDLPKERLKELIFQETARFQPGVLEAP

Adenosine receptor A2a = Adenosine receptor A2a (Homo sapiens, UniProt P29274); test: DRUGMATRIX: Adenosine A2A radioligand binding (ligand: […]); assay type: cell membranes, HEK293, Membrane; conditions: hek293; Not Active = under 50% inhibition at 10 µM
Sequence of Adenosine receptor A2a (P29274 whole entry): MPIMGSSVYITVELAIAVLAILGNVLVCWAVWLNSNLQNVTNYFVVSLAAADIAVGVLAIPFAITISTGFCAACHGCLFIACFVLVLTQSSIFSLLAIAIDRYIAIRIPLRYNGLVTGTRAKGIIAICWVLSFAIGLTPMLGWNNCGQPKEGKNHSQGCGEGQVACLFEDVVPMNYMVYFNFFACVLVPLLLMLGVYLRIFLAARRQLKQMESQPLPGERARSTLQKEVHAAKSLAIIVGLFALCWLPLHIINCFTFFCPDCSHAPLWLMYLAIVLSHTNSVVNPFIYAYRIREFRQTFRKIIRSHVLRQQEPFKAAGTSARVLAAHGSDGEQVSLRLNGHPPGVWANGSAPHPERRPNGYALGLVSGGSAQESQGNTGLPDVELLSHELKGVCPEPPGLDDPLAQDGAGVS

| Structure (SMILES) | IC50 [1] | IC50 (Melanocortin receptor 3) | IC50 [2] | IC50 [3] | IC50 (Cathepsin G) | IC50 [4] | IC50 (Adenosine receptor A2a) | IC50 ([4]; read-out: IC50) [µM] |
| --- | --- | --- | --- | --- | --- | --- | --- | --- |
| Nn1nnc2ccccc21 | Not Active | Not Active | Not Active | Not Active | Not Active | Not Active | Not Active |  |
| CC[C@]1(O)CC[C@H]2[C@@H]3CCC4=CCCC[C@@H]4[C@H]3CC[C@@]21C | Not Active | Not Active | Not Active | Not Active | Not Active | Not Active | Not Active |  |
| N[C@@H](Cc1ccc(F)cc1)C(=O)O | Not Active | Not Active | Not Active | Not Active | Not Active | Not Active | Not Active |  |
| CCOC(=O)[C@H](CCc1ccccc1)N[C@@H](C)C(=O)N1Cc2ccccc2C[C@H]1C(=O)O | Not Active | Not Active | Not Active | Not Active | Not Active | Not Active | Not Active |  |
| O=C(c1ccccc1Cl)N1CCC(Cc2ccccc2)CC1 | Not Active | Not Active | Not Active | Not Active | Not Active | Not Active | Not Active |  |
| CCOC(=O)[C@H](CCc1ccccc1)N[C@@H](C)C(=O)N1CCC[C@H]1C(=O)O | Not Active | Not Active | Not Active | Not Active | Not Active | Not Active | Not Active |  |
| Clc1cc2c(cc1Cl)Oc1cc(Cl)c(Cl)cc1O2 [2,3,7,8-TETRACHLORODIBENZO-P-DIOXIN] | Not Active | Not Active | Not Active | Not Active | Not Active | Not Active | Not Active |  |
| C=C1/C(=C\C=C2/CCC[C@]3(C)[C@@H]([C@H](C)CCCC(C)C)CC[C@@H]23)C[C@@H](O)C[C@@H]1O [ALFACALCIDOL] | Not Active | Not Active | Not Active | Not Active | Not Active | Not Active | Not Active |  |
| CCCCCC[C@H]1C(=O)O[C@H](C)[C@H](NC(=O)c2cccc(NC=O)c2O)C(=O)O[C@@H](C)[C@@H]1OC(=O)CC(C)C [ANTIMYCIN A] | Not Active | Not Active | Not Active | Not Active | Not Active | Not Active | Not Active |  |
| C[C@@H]1CC[C@H]2[C@@H](C)C(=O)O[C@@H]3O[C@@]4(C)CC[C@@H]1[C@]32OO4 [ARTEMISININ] | Not Active | Not Active | Not Active | Not Active | Not Active | Not Active | Not Active |  |
| CO[C@H]1[C@@H](O)[C@H](N)[C@@H](O[C@H]2O[C@H]([C@H](C)N)CC[C@H]2N)[C@H](O)[C@@H]1N(C)C(=O)CN [ASTROMICIN] | Not Active | Not Active | Not Active | Not Active | Not Active | Not Active | Not Active |  |
| [N-]=[N+]=CC(=O)OC[C@H](N)C(=O)O [AZASERINE] | Not Active | Not Active | Not Active | Not Active | Not Active | Not Active | Not Active |  |
| CC[C@H]1OC(=O)[C@H](C)[C@@H](O[C@H]2C[C@@](C)(OC)[C@@H](O)[C@H](C)O2)[C@H](C)[C@@H](O[C@@H]2O[C@H](C)C[C@H](N(C)C)[C@H]2O)[C@](C)(O)C[C@@H](C)CN(C)[C@H](C)[C@@H](O)[C@]1(C)O [AZITHROMYCIN] | Not Active | Not Active | Not Active | Not Active | Not Active | Not Active | Not Active |  |
| CC(C)(C)c1ccc(S(=O)(=O)/C=C/C#N)cc1 [BAY-11-7085] | Not Active | Not Active | Not Active | Not Active | Not Active | Not Active | Not Active |  |
| CCc1oc2ccccc2c1C(=O)c1cc(Br)c(O)c(Br)c1 [BENZBROMARONE] | Not Active | Not Active | Not Active | Not Active | Not Active | Not Active | Not Active |  |
| O=c1cc(-c2ccccc2)oc2ccc3ccccc3c12 [BETA-NAPHTHOFLAVONE] | Not Active | Not Active | Not Active | Not Active | Not Active |  | Not Active | 5.47 |
| CC(C)C[C@H]1C(=O)N2CCC[C@H]2[C@]2(O)O[C@](NC(=O)[C@@H]3C=C4c5cccc6[nH]c(Br)c(c56)C[C@H]4N(C)C3)(C(C)C)C(=O)N12 [BROMOCRIPTINE] |  | Not Active | Not Active | Not Active | Not Active | Not Active | Not Active |  |
| CS(=O)(=O)OCCCCOS(C)(=O)=O [BUSULFAN] | Not Active | Not Active | Not Active | Not Active | Not Active | Not Active | Not Active |  |
| O=C(/C=C/c1ccc(O)c(O)c1)OCCc1ccccc1 [CAFFEIC ACID PHENETHYL ESTER] | Not Active | Not Active | Not Active | Not Active | Not Active | Not Active | Not Active |  |
| COc1cc(CNC(=O)CCCC/C=C/C(C)C)ccc1O [CAPSAICIN] | Not Active | Not Active | Not Active | Not Active | Not Active | Not Active | Not Active |  |
| NC(=O)N1c2ccccc2C=Cc2ccccc21 [CARBAMAZEPINE] | Not Active | Not Active | Not Active | Not Active | Not Active | Not Active | Not Active |  |
| CCOC(=O)n1ccn(C)c1=S [CARBIMAZOLE] | Not Active | Not Active | Not Active | Not Active | Not Active | Not Active | Not Active |  |
| Oc1ccccc1O [CATECHOL] | Not Active | Not Active | Not Active | Not Active | Not Active | Not Active | Not Active |  |
| CN1C[C@H](C(=O)N[C@]2(C)O[C@@]3(O)[C@@H]4CCCN4C(=O)[C@H](Cc4ccccc4)N3C2=O)C[C@@H]2c3cccc4[nH]cc(c34)C[C@H]21 [DIHYDROERGOTAMINE] |  | Not Active | Not Active | Not Active | Not Active | Not Active | Not Active |  |
| Cc1c(N(C)CS(=O)(=O)[O-])c(=O)n(-c2ccccc2)n1C.[Na+] [DIPYRONE SODIUM] | Not Active | Not Active | Not Active | Not Active | Not Active |  | Not Active |  |
| Cc1cnc(C(=O)NCCc2ccc(S(=O)(=O)NC(=O)NC3CCCCC3)cc2)cn1 [GLIPIZIDE] | Not Active | Not Active | Not Active | Not Active | Not Active |  | Not Active |  |
| N=C(N)N/N=C/c1c(Cl)cccc1Cl [GUANABENZ] |  | Not Active | Not Active | Not Active | Not Active | Not Active | Not Active |  |
